Assay [1] concerns Doritaenopsis casablanca Joy × Phalaenopsis taida Pinlong. The assay can be described thus: Flowering rates with bio-fertilizer and plant growth substance. Type of assay: in vivo. To be noted: room temperature. Here is the method: (§1) Phalaenopsis amabili and Doritaenopsis casablanca Joy×Phalaenopsis taida Pinlong are treated with either bio-fertilizer composition Mb or plant growth regulators Gibberellic Acid (GA3), or both. The flowering rates are observed after incubation.

The next assay deals with Phalaenopsis amabilis. The description is as above. Type of assay: in vivo. The following applies: room temperature. Here is the method:
as §1

On to `C=C1C[C@]23C[C@@]1(O)CC[C@H]2[C@@]12C=C[C@H](O)[C@@](C)(C(=O)O1)[C@H]2[C@@H]3C(=O)O` [NM + GA3, Gibberellic Acid], for which the figures for the flowering rate (in assay [1]; in the assay with Phalaenopsis amabilis) were 71% and 75%, respectively.

The values above are taken from patent US7405181B2, “Bio-fertilizer composition for promoting growth or orchid plants and application” (National Taiwan University, priority 2005, dated 2008).
